Experiments:
HBV [1] = assay: Anti-HBV activity in HepG2.2.15 stable transfected cell line (HBV DNA from secreted virions, realtime PCR); type: cell-based, Hepatitis B virus; details: HepG2.2.15 cells, 6 days of treatment, HBV DNA from secreted virions by realtime PCR
[2] = Cytotoxicity in HepG2 cells (Resazurin assay); type: cell-based; details: human, incubated 4 days, viability by Resazurin assay
HBV [3] = assay: Anti-HBV activity in HepG2.117 inducible HBV producing cell line (intracellular HBV DNA, realtime PCR); type: cell-based, Hepatitis B virus; details: HepG2.117 cells (Tet-off), 3 days of treatment, intracellular HBV DNA by realtime PCR
[4] = Hepatitis B virus, HepG2.2.15, 144 h
[5] = Hepatitis B virus, HepG2.117, 72 h

SMILES	EC50 (HBV [1]) [nM]	CC50 at 4 days [2] [µM]	EC50 (HBV [3]) [nM]	EC50 (HBV [1]; [4]) [nM]	EC50 (HBV [3]; [5]) [nM]
Cc1cc(NC(=O)C2CC(C)N(C(=O)C(=O)NC3(C)COC3)C2)ccc1F (single isomer, unassigned) [Compound 17a, N-(4-fluoro-3-methylphenyl)-5-methyl-1-(2-((3-methyloxetan-3-yl)amino)-2-oxoacetyl)pyrrolidine-3-carboxamide]	> 1000	> 25	> 1000	–	–
CC(C)NC(=O)C(=O)N1CCC(C(=O)Nc2cc(F)c(F)c(Cl)c2)[C@@H]1C (single isomer, unassigned) [Compound 29a]	10	> 25	11	–	–
CC1C(C(=O)Nc2ccc(F)c(Cl)c2F)CCCN1C(=O)C(=O)N[C@H](C)C(F)(F)F (single isomer, unassigned) [Compound 35a]	> 1000	> 25	> 1000	–	–
C[C@@H](NC(=O)C(=O)N1CC[C@H](C(=O)Nc2cc(F)c(F)c(Br)c2)C1)C(F)(F)F [Compound 1, (S)-N-(3-bromo-4,5-difluorophenyl)-1-(2-oxo-2-(((R)-1,1,1-trifluoropropan-2-yl)amino)acetyl)pyrrolidine-3-carboxamide]	–	> 25	–	20	18
CC1(NC(=O)C(=O)N2CC[C@H](C(=O)Nc3cc(F)c(F)c(Br)c3)C2)COC1 [Compound 2, (S)-N-(3-bromo-4,5-difluorophenyl)-1-(2-((3-methyloxetan-3-yl)amino)-2-oxoacetyl)pyrrolidine-3-carboxamide]	–	> 25	–	70	33
CC(C)(C)NC(=O)C(=O)N1CC[C@H](C(=O)Nc2cc(F)c(F)c(Br)c2)C1 [Compound 3, (S)-N-(3-bromo-4,5-difluorophenyl)-1-(2-(tert-butylamino)-2-oxoacetyl)-pyrrolidine-3-carboxamide]	–	> 25	–	141	26
Cc1cc(NC(=O)[C@H]2CCN(C(=O)C(=O)NC(C)C)C2)ccc1F [Compound 4, (3S)-N-(4-Fluoro-3-methylphenyl)-1-{[(1-methylethyl)amino] (oxo)acetyl}-pyrrolidine-3-carboxamide]	–	> 25	–	126	71
Cc1cc(NC(=O)[C@H]2CCN(C(=O)C(=O)NC3CCCC3)C2)ccc1F [Compound 5]	–	> 25	–	112	46
Cc1cc(NC(=O)[C@H]2CCN(C(=O)C(=O)N[C@H](C)CO)C2)ccc1F [Compound 6, (S)-N-(4-fluoro-3-methylphenyl)-1-(2-(((R)-1-hydroxypropan-2-yl)amino)-2-oxoacetyl)pyrrolidine-3-carboxamide]	–	> 25	–	301	257
Cc1cc(NC(=O)[C@H]2CCN(C(=O)C(=O)NC3(C)COC3)C2)ccc1F [Compound 7, (3S)-N-(4-Fluoro-3-methylphenyl)-1-{[(3-methyloxetan-3-yl)amino]-(oxo)acetyl}pyrrolidine-3-carboxamide]	–	> 25	–	67	117
CC[C@@H](C)NC(=O)C(=O)N1CC[C@H](C(=O)Nc2ccc(F)c(C)c2)C1 [Compound 8, (3S)-N-(4-Fluoro-3-methylphenyl)-1-[{[(1R)-1-methylpropyl]amino}(oxo)acetyl]pyrrolidine-3-carboxamide]	–	> 25	–	65	38
Cc1cc(NC(=O)[C@H]2CCN(C(=O)C(=O)N[C@H]3CCOC3)C2)ccc1F [Compound 9, (3S)-N-(4-Fluoro-3-methylphenyl)-1-{oxo[(3S)-tetrahydrofuran-3-ylamino]-acetyl}pyrrolidine-3-carboxamide]	–	> 25	–	120	134
Cc1cc(NC(=O)[C@H]2CCN(C(=O)C(=O)NC3(C)COC3)[C@H]2C)ccc1F [Compound 10, (2S,3S)-N-(4-Fluoro-3-methylphenyl)-2-methyl-1-{[(3-methyloxetan-3-yl)-amino](oxo)acetyl}pyrrolidine-3-carboxamide]	–	> 25	–	8	9
C[C@@H](NC(=O)C(=O)N1CC[C@H](C(=O)Nc2cc(F)c(F)c(Cl)c2)C1)C(F)(F)F [Compound 11, (S)-N-(3-chloro-4,5-difluorophenyl)-1-(2-oxo-2-(((R)-1,1,1-trifluoropropan-2-yl)amino)acetyl)pyrrolidine-3-carboxamide]	–	> 25	–	32	17
Cc1cc(NC(=O)[C@H]2CCCN(C(=O)C(=O)NC(C)C)C2)ccc1F [Compound 12, (3S)-N-(4-Fluoro-3-methylphenyl)-1-{[(1-methylethyl)amino] (oxo)-acetyl}piperidine-3-carboxamide]	–	> 25	–	321	115
O=C(NC1(C(F)(F)F)CC1)C(=O)N1CC[C@H](C(=O)Nc2cc(F)c(F)c(Cl)c2)C1 [Compound 13, (S)-N-(3-chloro-4,5-difluorophenyl)-1-(2-oxo-2-((1-(trifluoromethyl)cyclopropyl)amino)acetyl)pyrrolidine-3-carboxamide]	–	> 25	–	20	35
C[C@@H](NC(=O)C(=O)N1CC[C@H](C(=O)Nc2ccc(F)c(C(F)(F)F)c2)C1)C(F)(F)F [Compound 14, (S)-N-(4-fluoro-3-(trifluoromethyl)phenyl)-1-(2-oxo-2-(((R)-1,1,1-trifluoropropan-2-yl)amino)acetyl)pyrrolidine-3-carboxamide]	–	> 25	–	64	45
C[C@@H](NC(=O)C(=O)N1CC[C@H](C(=O)Nc2ccc(F)c(Cl)c2)C1)C(F)(F)F [Compound 15, (S)-N-(3-chloro-4-fluorophenyl)-1-(2-oxo-2-(((R)-1,1,1-trifluoropropan-2-yl)amino)acetyl)pyrrolidine-3-carboxamide]	–	> 25	–	25	47
CC(C)(NC(=O)C(=O)N1CC[C@H](C(=O)Nc2cc(F)c(F)c(Cl)c2)C1)C(F)(F)F [Compound 16, (S)-N-(3-chloro-4,5-difluorophenyl)-1-(2-oxo-2-((1,1,1-trifluoro-2-methylpropan-2-yl)amino)acetyl)pyrrolidine-3-carboxamide]	–	> 25	–	58	35
C[C@@H](NC(=O)C(=O)N1CCC(C(=O)Nc2cc(F)c(F)c(Cl)c2)C1(C)C)C(F)(F)F (stereo partly drawn) [Compound 18, N-(3-chloro-4,5-difluoro-phenyl)-2,2-dimethyl-1-[2-oxo-2-[[(1R)-2,2,2-trifluoro-1-methyl-ethyl]amino]acetyl]pyrrolidine-3-carboxamide]	–	> 25	–	–	670
CC(C)(C)NC(=O)C(=O)N1CC[C@H](C(=O)Nc2ccc(F)c(Cl)c2F)C1 [Compound 19, (3S)-1-[2-(tert-butylamino)-2-oxo-acetyl]-N-(3-chloro-2,4-difluoro-phenyl)pyrrolidine-3-carboxamide]	–	> 25	–	496	449
CC(C)(C)NC(=O)C(=O)N1CC[C@H](C(=O)Nc2ccc(F)c(C#N)c2)C1 [Compound 20, (3S)-1-[2-(tert-butylamino)-2-oxo-acetyl]-N-(3-cyano-4-fluorophenyl)-pyrrolidine-3-carboxamide]	–	> 25	–	289	645
C[C@@H](NC(=O)C(=O)N1CC[C@H](C(=O)Nc2ccc(F)c(Cl)c2F)C1)C(F)(F)F [Compound 21, (3S)-N-(3-chloro-2,4-difluoro-phenyl)-1-[2-oxo-2-[[(1R)-2,2,2-trifluoro-1-methyl-ethyl]amino]acetyl]pyrrolidine-3-carboxamide]	–	> 25	–	63	63
C[C@@H](NC(=O)C(=O)N1CC[C@H](C(=O)Nc2ccc(F)c(C#N)c2)C1)C(F)(F)F [Compound 22, (3S)-N-(3-cyano-4-fluoro-phenyl)-1-[2-oxo-2-[[(1R)-2,2,2-trifluoro-1-methyl-ethyl]amino]acetyl]pyrrolidine-3-carboxamide]	–	> 25	–	110	128
C[C@H]1[C@H](C(=O)Nc2cc(F)c(F)c(Cl)c2)CCN1C(=O)C(=O)N[C@H](C)C(F)(F)F [Compound 33a, (2S,3R)—N-(3-chloro-4,5-difluoro-phenyl)-2-methyl-1-[2-oxo-2-[[(1R)-2,2,2-trifluoro-1-methyl-ethyl]amino]acetyl]pyrrolidine-3-carboxamide]	–	> 25	–	–	> 500
C[C@H]1[C@@H](C(=O)Nc2cc(F)c(F)c(Cl)c2)CCN1C(=O)C(=O)N[C@H](C)C(F)(F)F [Compound 33b, (2S,3S)-N-(3-chloro-4,5-difluoro-phenyl)-2-methyl-1-[2-oxo-2-[[(1R)-2,2,2-trifluoro-1-methyl-ethyl]amino]acetyl]pyrrolidine-3-carboxamide]	–	> 25	–	–	5
C[C@H]1[C@H](C(=O)Nc2cc(F)c(F)c(F)c2)CCN1C(=O)C(=O)N[C@H](C)C(F)(F)F [Compound 34a, (2S,3R)-2-methyl-1-[2-oxo-2-[[(1R)-2,2,2-trifluoro-1-methyl-ethyl]amino]acetyl]-N-(3,4,5-trifluorophenyl)pyrrolidine-3-carboxamide]	–	> 25	–	–	> 500
C[C@H]1[C@@H](C(=O)Nc2cc(F)c(F)c(F)c2)CCN1C(=O)C(=O)N[C@H](C)C(F)(F)F [Compound 34b, (2S,3S)-2-methyl-1-[2-oxo-2-[[(1R)-2,2,2-trifluoro-1-methyl-ethyl]amino]acetyl]-N-(3,4,5-trifluorophenyl)pyrrolidine-3-carboxamide]	–	> 25	–	–	4

Reference: patent US10377709B2, “Carboxamide derivatives and the use thereof as medicaments for the treatment of hepatitis B” (Janssen Sciences Ireland UC, priority 2013, dated 2019)
